{"source": "paper PMC13055374", "about": "“Engineered antimicrobial-derived peptides to manipulate mixed microbial systems” (Microbiology Spectrum, 2026)", "key": {"L. casei": {"test_system": "L. casei", "assay": "Cell-binding assay by flow cytometry", "parameters": "species or system Lacticaseibacillus casei", "conditions": "signal did not saturate", "description": "(§1) The binding affinity and avidity of pediocin to various gram-positive and gram-negative bacteria were studied using flow cytometry. Late log-phase cells were washed in the sodium phosphate buffer (5 mM, pH 6.0) and resuspended at an OD600 of 10^–3 in sodium-acetate buffer (25 mM, pH 4.0), sodium phosphate buffer (5 mM, pH 6.0), or sodium phosphate buffer (5 mM, pH 7.4) containing 1% bovine serum albumin (BSA) and 100 mM NaCl. Cells were incubated with varying concentrations of the conjugated peptide at 4°C for 30 min. The unbound peptide was removed by centrifugation, and the pellet was resuspended in its respective binding buffer containing 1% BSA. Flow cytometry was performed on an Attune NxT flow cytometer (Life Technologies/ThermoFisher Scientific, Carlsbad, CA). Data (≥10^4 events were recorded) were recorded using a […] (488 nm) at a voltage of 360 V, and gating was performed on an SSC-A versus SSC-H plot to reduce false events."}, "L. seeligeri": {"test_system": "L. seeligeri", "assay_type": "cell-based, Listeria seeligeri", "conditions": "24 h", "description": "(§2) To determine the potency of the purified pediocin PA-1, we generated kill curves against a range of target bacteria (Fig. 1C). The concentration range tested was 3 pM to 3 μM following 10-fold serial dilutions. […] This is in approximate agreement with the published potency of pediocin PA-1 ([46]). Though the molecular mass of pediocin PA-1 is expected to be 4.5 kDa, we observed the partially purified peptide to migrate with an apparent mass of ~12.5 kDa (Fig. 1B). However, subsequent analysis by LC-MS yielded peaks of multiple m/z with the predominant peak at the expected molecular size of 4.6 kDa (Fig. S4). The purified pediocin PA-1, separated on denaturing but non-reducing SDS-PAGE (since this bacteriocin contains two crucial disulfide bonds), was subjected to agar-overlay assay using L. seeligeri as the indicator organism (Fig. S5).\n(§3) The antimicrobial spectrum of pediocin PA-1 was assayed using a kill curve. Cultures grown overnight were resuspended in fresh medium at an OD600 of 0.05. EC50 was determined by incubating cells with varying concentrations of pediocin in a 96-well plate, and growth was measured at 600 nm after 24 h.\nFigure S7. Growth inhibition of L. seeligeri by modified and unmodified pediocin PA-1."}, "L. cremoris": {"test_system": "L. cremoris", "assay": "Cell-binding assay by flow cytometry", "parameters": "species or system Lactococcus cremoris", "conditions": "organism printed as L. lactis; signal did not saturate; read-out: Apparent KD", "description": "as §1"}, "Bacillus subtilis": {"test_system": "Bacillus subtilis", "assay": "Cell-binding assay by flow cytometry", "conditions": "maximum mean fluorescence intensity, Hill fit", "description": "as §1"}, "[1]": {"assay": "Specific activity of partially purified pediocin by agar-well diffusion method", "assay_type": "cell-based", "conditions": "after cell adsorption-desorption and dialysis", "from_the_text": "We then proceeded to clone the pediocin operon (pedABCD [43]) from P. acidilactici UL5 into the pSIP-P27 vector for heterologous expression in other lactic acid bacteria, viz., Lactiplantibacillus plantarum WCFS1, Lactococcus cremoris MG1363, and the well-established expression host, E. coli MG1655. The pediocin operon imparted anti-listerial activity to the L. plantarum culture supernatant but not to that of L. cremoris or E. coli (Fig. 1A). Based on the degree of bioactivity, we concluded that the level of recombinant biosynthetic pediocin PA-1 accumulated in L. plantarum culture was […] that observed for P. acidilactici UL5 and was therefore not pursued further. Thus, for subsequent studies, we isolated pediocin PA-1 from P. acidilactici UL5 directly using the cell adsorption-desorption approach (Fig. S2). […] We attempted to further purify the preparation using reverse-phase high performance liquid chromatography with minimal enhancement in purity but a significant loss in yield (Fig. S3). The peptide recovered after cell adsorption-desorption and dialysis was lyophilized for long-term storage to minimize any loss in activity. The peptide using this method was purified 189-fold with a specific activity of 9,434 AU·mg^−1 as measured by agar-well diffusion method (Fig. 1B; Fig. S2A through C). […]"}, "E. coli": {"test_system": "E. coli", "assay": "Cell-binding assay by flow cytometry", "parameters": "species or system Escherichia coli", "conditions": "negative control species; signal did not saturate; read-out: Apparent KD", "description": "as §1"}, "L. coryniformis [2]": {"test_system": "L. coryniformis", "assay_type": "cell-based, Lactobacillus coryniformis", "conditions": "24 h", "description": "as §2, §3"}, "L. coryniformis [3]": {"test_system": "L. coryniformis", "assay": "Cell-binding assay by flow cytometry", "parameters": "species or system Lactobacillus coryniformis", "conditions": "maximum mean fluorescence intensity, Hill fit", "description": "as §1"}, "[4]": {"assay_type": "physicochemical", "from_the_text": "We then proceeded to clone the pediocin operon (pedABCD [43]) from P. acidilactici UL5 into the pSIP-P27 vector for heterologous expression in other lactic acid bacteria, viz., Lactiplantibacillus plantarum WCFS1, Lactococcus cremoris MG1363, and the well-established expression host, E. coli MG1655. The pediocin operon imparted anti-listerial activity to the L. plantarum culture supernatant but not to that of L. cremoris or E. coli (Fig. 1A). Based on the degree of bioactivity, we concluded that the level of recombinant biosynthetic pediocin PA-1 accumulated in L. plantarum culture was similar to that observed for P. acidilactici UL5 and was therefore not pursued further. Thus, for subsequent studies, we isolated pediocin PA-1 from P. acidilactici UL5 directly using the cell adsorption-desorption approach (Fig. S2). […] We attempted to further purify the preparation using reverse-phase high performance liquid chromatography with minimal enhancement in purity but a significant loss in yield (Fig. S3). The peptide recovered after cell adsorption-desorption and dialysis was lyophilized for long-term storage to minimize any loss in activity. The peptide using this method was purified 189-fold with a specific activity of 9,434 AU·mg^−1 as measured by agar-well diffusion method (Fig. 1B; Fig. S2A through C)."}}, "note": "Marks after values point to notes of the source that are not given here.", "data": [{"smiles": "CC[C@H](C)[C@@H]1NC(=O)[C@@H](NC(=O)[C@@H](NC(=O)[C@@H](NC(=O)[C@H](C)NC(=O)[C@H](CCCCN)NC(=O)CNC(=O)[C@H](Cc2c[nH]c3ccccc23)NC(=O)[C@H](CC(=O)O)NC(=O)[C@@H](NC(=O)[C@H](CO)NC(=O)[C@@H]2CSSC[C@H](NC(=O)[C@@H](NC(=O)[C@@H](NC(=O)CNC(=O)[C@H](CC(N)=O)NC(=O)CNC(=O)[C@H](Cc3ccc(O)cc3)NC(=O)[C@H](Cc3ccc(O)cc3)NC(=O)[C@@H](N)CCCCN)C(C)C)[C@@H](C)O)C(=O)NCC(=O)N[C@@H](CCCCN)C(=O)N[C@@H](Cc3c[nH]cn3)C(=O)N[C@@H](CO)C(=O)N2)C(C)C)[C@@H](C)O)[C@@H](C)O)CSSC[C@@H](C(=O)O)NC(=O)[C@H](CCCCN)NC(=O)[C@H](Cc2c[nH]cn2)NC(=O)[C@H](CC(N)=O)NC(=O)CNC(=O)[C@H](CCC(N)=O)NC(=O)[C@H](Cc2c[nH]cn2)NC(=O)CNC(=O)CNC(=O)[C@H]([C@@H](C)O)NC(=O)[C@H](C)NC(=O)[C@H](Cc2c[nH]c3ccccc23)NC(=O)[C@H](C)NC(=O)[C@H](CCSC)NC(=O)[C@H](C)NC(=O)CNC(=O)[C@H](CC(N)=O)NC(=O)[C@H](CC(N)=O)NC(=O)[C@H]([C@@H](C)CC)NC1=O", "note": "[pediocin PA-1]", "values": [{"measurement": "MFImax", "setting": "L. casei", "value": ">2* ×10^3"}, {"measurement": "Kd", "setting": "L. casei; read-out: Apparent KD", "value": "> 2000", "unit": "nM"}, {"measurement": "EC50", "setting": "L. seeligeri", "value": "~13.3", "unit": "nM"}, {"measurement": "Kd", "setting": "L. cremoris", "value": "> 2000", "unit": "nM"}, {"measurement": "MFImax", "setting": "Bacillus subtilis", "value": "7 ± 1 ×10^3"}, {"measurement": "specific activity", "setting": "[1]", "value": "9,434 AU·mg^−1"}, {"measurement": "Kd", "setting": "E. coli", "value": "> 2000", "unit": "nM"}, {"measurement": "EC50", "setting": "L. coryniformis [2]", "value": "~1", "unit": "nM"}, {"measurement": "MFImax", "setting": "L. coryniformis [3]", "value": "6.3 ± 0.3 ×10^3"}, {"measurement": "stability of peptide recovered at acidic pH compared with basic pH", "setting": "[4]", "value": "more stable"}]}]}
